The test system of data set [1] is Drosophila melanogaster. As to the kind of experiment: Genotoxicity, wing spot test (SMART). Conditions: H2O2 0.15 M, positive control.
Procedure: The wing spot test was performed to evaluate genotoxicity assays following the standard procedure [14]. Briefly, trans-heterozygous larvae for mwh and flr^3 genes were obtained by crossing four day-old virgin flr^3 females with mwh males in a 2:1 ratio. Four days after fertilization, females were allowed to lay eggs in fresh yeast medium (25 g yeast and 4 mL sterile distilled water) for 8 h in order to obtain synchronized larvae. After 72 h, larvae were collected, washed with distilled water, and clustered in groups of 100 individuals. […] Adult flies were collected and stored in 70% ethanol until the wings were removed and mounted on slides using Faure’s solution. Mutant spots were assessed in both dorsal and ventral surfaces of the wings in a bright light microscope at 400× magnification. The frequencies of each type of mutant clone per wing (single, large or twin spot) were compared with the concurrent negative control [43]. All inconclusive and positive results (p > 0.05) were analysed with the nonparametric U-test of Mann, Whitney and Wilcoxon (α = β = 0.05).
Data set [2] concerns Drosophila melanogaster. Briefly: Antitoxicity assay, combined treatment with 0.15 M H2O2. The following applies: 0.15 M hydrogen peroxide alone, positive toxicant control concurrent to each test substance.
Procedure: Toxicity was assayed according to our standard protocols. CRB and SFRB were tested at five concentrations: 1, 4, 8.12, 32.5 and 130 mg/mL and 0.16, 0.625, 1.25, 5 and 20 mg/mL, respectively. […] Tested groups consisted of larvae fed with Drosophila Instant Medium (Formula 4–24, Carolina Biological Supply, Burlington, NC, USA) supplemented with the assessed compounds concentrations. Emerging adults of all groups were counted and toxicity was determined as the percentage of hatched individuals in each treatment compared with the negative control.

Each structure is given as a SMILES string. Values joined by “and” are separate entries in the source; they are usually repeats but may differ in a detail not shown here. Equal values may be shown once.

The values that follow come from PMC8069289 (Molecules, 2021).

In the case of `OO` [H2O2, hydrogen peroxide, reference compound], the “Twin Spots m = 5” value with Drosophila melanogaster [1] is 0 clones per wing. Besides, in the data set with Drosophila melanogaster [1] (No. of spots in parentheses), the “Large Simple Spots (>2 Cells) m = 5” value was 0.05 (2) clones per wing, the “Small Single Spots (1–2 Cells) m = 2” value is 0.375 (15) clones per wing and the “Total Spots m = 2” value is on record as 0.425 (17) clones per wing. Besides, in the data set with Drosophila melanogaster [2], the “Survival (%)” value was 60% and 38.46% and 58%.
